Where “and” joins values, the source holds several entries; their conditions need not be identical. Identical values can stand only once.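 These data come from cells grown in 96-well plates and exposed to compound for 48 hours at five concentrations. GI50 is the concentration that inhibits growth by half. TGI denotes the concentration required for complete inhibition of growth.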
Legend:
Test in all cases: NCI-60 cell line screen, 48 h
M14 melanoma = test system: M14 melanoma
HCT-116 colon = test system: HCT-116 colon
ACHN renal = test system: ACHN renal
KM12 colon = test system: KM12 colon
HL-60(TB) leukemia = test system: HL-60(TB) leukemia
SF-268 CNS = test system: SF-268 CNS
SNB-75 CNS = test system: SNB-75 CNS
OVCAR-5 ovarian = test system: OVCAR-5 ovarian
UO-31 renal = test system: UO-31 renal
LOX IMVI melanoma = test system: LOX IMVI melanoma

Row | Structure (SMILES) | GI50 (M14 melanoma) | TGI (M14 melanoma) | GI50 (HCT-116 colon) [µM] | TGI (HCT-116 colon) | GI50 (ACHN renal) | TGI (ACHN renal) | GI50 (KM12 colon) [µM] | TGI (KM12 colon) [µM] | GI50 (HL-60(TB) leukemia) [µM] | TGI (HL-60(TB) leukemia) | GI50 (SF-268 CNS) | TGI (SF-268 CNS) | GI50 (SNB-75 CNS) [µM] | TGI (SNB-75 CNS) [µM] | GI50 (OVCAR-5 ovarian) | TGI (OVCAR-5 ovarian) | GI50 (UO-31 renal) | TGI (UO-31 renal) | GI50 (LOX IMVI melanoma) [µM] | TGI (LOX IMVI melanoma)
1 | CC(C)(C)C(=O)[CH-]C(=O)C(C)(C)C.CC(C)(C)C(=O)[CH-]C(=O)C(C)(C)C.CN(C)c1ccc([O-])cc1.CN(C)c1ccc([O-])cc1.[Ti+4] | 60.8 µM | > 100 µM | > 100 | > 100 µM | > 100 µM | > 100 µM | 64.8 | > 100 | > 100 | > 100 µM | > 100 µM | > 100 µM | 26.1 | > 100 | > 100 µM | > 100 µM | > 100 µM | > 100 µM | > 100 | > 100 µM
2 | CSC(=NCCc1c[nH]c2ccccc12)NC#N |  | > 100 µM |  | > 100 µM |  | > 100 µM |  | > 100 |  | > 100 µM |  | > 100 µM |  | > 100 |  | > 100 µM |  | > 100 µM |  | > 100 µM
3 | CC(C)(C)OC(=O)NCCCCCCCn1c2c(c3ccccc3c1=O)C(=O)c1ccccc1-2 | 44.4 µM | > 100 µM | 17.6 | 66.6 µM | 27.1 µM | 90.4 µM | 60.6 | > 100 | 16.4 | 40.5 µM | 25.4 µM | 93.6 µM | 21.5 | 49.7 | > 100 µM | > 100 µM | 25.6 µM | > 100 µM | 65.2 | > 100 µM
4 | c1ccc(N2N=C(c3ccco3)CC2c2ccco2)cc1 (stereo not drawn) |  | > 100 µM |  | > 100 µM |  | > 100 µM |  | > 100 |  | 73.4 µM |  | > 100 µM |  | > 100 |  | > 100 µM |  | > 100 µM |  | > 100 µM
5 | O=C(/C=C/c1ccccc1)c1ccc(NCc2nc3ccccc3[nH]2)cc1 |  | 21.4 µM |  | 13 µM |  | 20.4 µM |  | 4.54 |  | > 22.3 µM |  | 20.9 µM |  | 20.9 |  | 23.2 µM |  | 20.2 µM |  | 3.76 µM
6 | CCC1=CC2CN(C1)Cc1c([nH]c3ccccc13)[C@@](C(=O)OC)(c1cc3c(cc1OC)N(C)[C@H]1[C@@](O)(C(=O)OC)[C@H](OC(C)=O)[C@]4(CC)C=CCN5CC[C@]31[C@@H]54)C2 (stereo partly drawn) | 0.00953 µM and 0.0245 µM | 5.82 µM and 0.913 µM | < 0.005 | 50 µM and > 100 µM | 0.407 µM and 1.27 µM | 50 µM and > 100 µM |  | 0.372 | < 0.005 | 0.00984 µM and 0.0285 µM | 0.122 µM and 0.145 µM | 50 µM and 91 µM |  | 17.9 | 0.0325 µM and 0.0785 µM | 50 µM and > 100 µM | 5.45 µM and 1.06 µM | 26.6 µM and 76.9 µM | < 0.005 | 50 µM and > 100 µM
7 | O=C(N[C@@H](C[Se][Se]C[C@H](NC(=O)c1ccc(Br)cc1F)C(=O)O)C(=O)O)c1ccc(Br)cc1F | > 100 µM | > 100 µM | > 100 | > 100 µM | > 100 µM | > 100 µM | > 100 | > 100 | > 100 | > 100 µM | > 100 µM | > 100 µM | > 100 | > 100 | > 100 µM | > 100 µM | > 100 µM | > 100 µM | > 100 | > 100 µM
8 | CCN(C(=O)/C=C/c1ccco1)c1ccccc1 |  | > 100 µM |  | > 100 µM |  | > 100 µM |  | > 100 |  | > 100 µM |  | > 100 µM |  | > 100 |  | > 100 µM |  | > 100 µM |  | > 100 µM
9 | C=C1C(=O)O[C@H]2[C@H]1CC/C(C=Nc1c(N)cc(C(F)(F)F)cc1Br)=C\CC[C@@]1(C)O[C@@H]21 | 1.71 µM | 3.55 µM | 1.11 | 2.41 µM | 1.41 µM | 2.71 µM | 1.8 | 3.97 | 0.397 | 2.48 µM | 1.4 µM | 3.34 µM | 1.27 | 3.67 | 1.83 µM | 3.75 µM | 1.26 µM | 2.52 µM | 1.4 | 2.74 µM
10 | COC(=O)C1(O)CC(=O)CCC1c1ccc(OC)cc1 (stereo not drawn) |  | > 100 µM |  | > 100 µM |  | > 100 µM |  | > 100 |  | > 100 µM |  | > 100 µM |  | > 100 |  | > 100 µM |  | > 100 µM |  | > 100 µM
11 | COc1cc(NCCCCCCCNC(C)C)c2nccc(C)c2c1 | 7.38 µM | 20.7 µM | 6.95 | 19.9 µM | 14.2 µM | 27.8 µM | 13.7 | 27.9 | 6.94 | 23.9 µM | 16.3 µM | 31.9 µM | 11.7 | 24.3 | 15.4 µM | 29.7 µM | 7.41 µM | 23 µM | 7.03 | 21.5 µM
12 | O=c1oc2ccc(I)cc2c(=O)n1-c1ccc(Cl)cc1F | 0.598 µM | 7.87 µM | 1.21 | 3.86 µM | 1.62 µM | 12.8 µM | 2.22 | 5.39 | 1.37 | 7.51 µM | 1.51 µM | 16.7 µM | 0.5 | 2.97 | 3.96 µM | 74.1 µM | 0.301 µM | 3.24 µM | 1.33 | 11.4 µM

— PubChem BioAssay (NCI)
